Blank lines part the entries; values can stand above or below the molecule they belong to.
Experiments:
[1] = target: T1, Protein cereblon/Glycogen synthase kinase-3 beta (Homo sapiens, UniProt P49841+Q96SW2); assay: Protac activity at CRBN/GSK3beta in human SH-SY5Y cells assessed as induction of GSK3beta degradation at 10 uM measured after 24 hrs; type: cell-based
Target sequence in this assay (P49841 whole entry, looked up): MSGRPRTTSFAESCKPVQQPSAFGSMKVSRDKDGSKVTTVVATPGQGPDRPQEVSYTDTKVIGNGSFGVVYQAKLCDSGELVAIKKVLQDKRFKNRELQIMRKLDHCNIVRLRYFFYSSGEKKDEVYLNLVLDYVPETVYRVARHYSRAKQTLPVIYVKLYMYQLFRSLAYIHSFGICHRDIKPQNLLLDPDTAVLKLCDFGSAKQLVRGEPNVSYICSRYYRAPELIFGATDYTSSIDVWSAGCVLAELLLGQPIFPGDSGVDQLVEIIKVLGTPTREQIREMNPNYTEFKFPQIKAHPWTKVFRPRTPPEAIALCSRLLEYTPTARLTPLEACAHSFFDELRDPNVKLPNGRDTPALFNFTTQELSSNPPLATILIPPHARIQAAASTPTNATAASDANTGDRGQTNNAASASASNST
Target sequence in this assay (Q96SW2 whole entry, looked up): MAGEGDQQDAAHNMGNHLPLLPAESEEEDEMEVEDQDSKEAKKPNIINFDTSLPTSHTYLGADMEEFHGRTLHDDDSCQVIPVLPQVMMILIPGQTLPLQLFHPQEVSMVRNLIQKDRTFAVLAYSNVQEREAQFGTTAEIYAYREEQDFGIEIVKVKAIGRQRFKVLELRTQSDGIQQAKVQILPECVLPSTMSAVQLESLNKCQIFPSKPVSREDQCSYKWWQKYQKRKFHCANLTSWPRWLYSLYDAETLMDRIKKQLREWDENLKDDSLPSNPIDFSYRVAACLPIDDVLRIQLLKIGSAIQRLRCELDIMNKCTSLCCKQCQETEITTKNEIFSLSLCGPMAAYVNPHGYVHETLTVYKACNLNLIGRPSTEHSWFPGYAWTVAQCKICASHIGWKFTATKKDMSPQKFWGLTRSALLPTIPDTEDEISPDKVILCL

[2] = target: T1, Protein cereblon/Glycogen synthase kinase-3 beta; assay: Protac activity at CRBN/GSK3beta in human SH-SY5Y cells assessed as induction of GSK3beta degradation at 1 uM measured after 24 hrs; type: cell-based
Target sequence in this assay (P49841 whole entry, looked up): as the sequence (P49841 whole entry, looked up) above
Target sequence in this assay (Q96SW2 whole entry, looked up): as the sequence (Q96SW2 whole entry, looked up) above

[3] = target: T2, Protein cereblon/Glycogen synthase kinase-3 alpha (Homo sapiens, UniProt P49840+Q96SW2); assay: Protac activity at CRBN/GSK3alpha in human SH-SY5Y cells assessed as induction of GSK3alpha protein degradation at 1 uM measured after 24 hrs; type: cell-based
Target sequence in this assay (P49840 2-483 limits assumed): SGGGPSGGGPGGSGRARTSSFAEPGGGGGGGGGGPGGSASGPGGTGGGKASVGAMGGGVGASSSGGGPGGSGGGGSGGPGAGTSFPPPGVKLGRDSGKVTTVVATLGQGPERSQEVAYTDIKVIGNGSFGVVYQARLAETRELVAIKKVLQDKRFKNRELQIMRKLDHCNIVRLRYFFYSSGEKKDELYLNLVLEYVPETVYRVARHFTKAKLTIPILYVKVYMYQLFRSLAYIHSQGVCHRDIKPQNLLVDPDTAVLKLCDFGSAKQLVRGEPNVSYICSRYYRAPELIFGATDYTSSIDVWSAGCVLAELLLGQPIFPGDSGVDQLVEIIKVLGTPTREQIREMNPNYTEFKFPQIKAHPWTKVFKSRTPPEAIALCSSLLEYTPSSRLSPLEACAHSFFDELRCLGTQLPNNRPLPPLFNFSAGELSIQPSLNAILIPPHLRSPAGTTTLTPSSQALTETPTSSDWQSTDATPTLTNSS
Target sequence in this assay (Q96SW2 whole entry partner): as the sequence (Q96SW2 whole entry, looked up) above

[4] = target: T2, Protein cereblon/Glycogen synthase kinase-3 alpha; assay: Protac activity at CRBN/GSK3alpha in human SH-SY5Y cells assessed as induction of GSK3alpha protein degradation at 10 uM measured after 24 hrs; type: cell-based
Target sequence in this assay (P49840 2-483 limits assumed): as the sequence (P49840 2-483 limits assumed) above
Target sequence in this assay (Q96SW2 whole entry partner): as the sequence (Q96SW2 whole entry, looked up) above

[5] = target: T2, Protein cereblon/Glycogen synthase kinase-3 alpha; assay: Protac activity at CRBN/GSK3alpha in human SH-SY5Y cells assessed as induction of GSK3alpha degradation at 0.1 uM measured after 24 hrs; type: cell-based
Target sequence in this assay (P49840 2-483 limits assumed): as the sequence (P49840 2-483 limits assumed) above
Target sequence in this assay (Q96SW2 whole entry partner): as the sequence (Q96SW2 whole entry, looked up) above

[6] = target: T1, Protein cereblon/Glycogen synthase kinase-3 beta; assay: Protac activity at CRBN/GSK3beta in human SH-SY5Y cells assessed as induction of GSK3beta degradation at 0.1 uM measured after 24 hrs; type: cell-based
Target sequence in this assay (P49841 whole entry, looked up): as the sequence (P49841 whole entry, looked up) above
Target sequence in this assay (Q96SW2 whole entry, looked up): as the sequence (Q96SW2 whole entry, looked up) above

SH-SY5Y [7] = assay: Induction of apoptosis in human SH-SY5Y cells assessed as necrotic cells at 10 uM preincubated for 2 hrs followed by coincubation with Abeta42 and measured after 72 hrs by Annexin V-FITC/propidium iodide staining based flow cytometry (Rvb=0.7%); type: functional; conditions: time 74 hrs
SH-SY5Y [8] = assay: Induction of apoptosis in human SH-SY5Y cells assessed as late apoptotic cells at 10 uM preincubated for 2 hrs followed by coincubation with Abeta42 and measured after 72 hrs by Annexin V-FITC/propidium iodide staining based flow cytometry (Rvb=3.5%); type: functional; conditions: time 74 hrs
SH-SY5Y [9] = assay: Induction of apoptosis in human SH-SY5Y cells assessed as live cells at 10 uM preincubated for 2 hrs followed by coincubation with Abeta42 and measured after 72 hrs by Annexin V-FITC/propidium iodide staining based flow cytometry (Rvb=94.8%); type: functional; conditions: time 74 hrs
SH-SY5Y [10] = assay: Induction of apoptosis in human SH-SY5Y cells assessed as early apoptotic cells at 10 uM preincubated for 2 hrs followed by coincubation with Abeta42 and measured after 72 hrs by Annexin V-FITC/propidium iodide staining based flow cytometry (Rvb=1%); type: functional; conditions: time 74 hrs
[11] = target: T2, Protein cereblon/Glycogen synthase kinase-3 alpha; assay: Protac activity at CRBN/GSK3alpha in human SH-SY5Y cells assessed as induction of GSK3alpha protein degradation measured after 24 hrs; type: cell-based
Target sequence in this assay (P49840 whole entry): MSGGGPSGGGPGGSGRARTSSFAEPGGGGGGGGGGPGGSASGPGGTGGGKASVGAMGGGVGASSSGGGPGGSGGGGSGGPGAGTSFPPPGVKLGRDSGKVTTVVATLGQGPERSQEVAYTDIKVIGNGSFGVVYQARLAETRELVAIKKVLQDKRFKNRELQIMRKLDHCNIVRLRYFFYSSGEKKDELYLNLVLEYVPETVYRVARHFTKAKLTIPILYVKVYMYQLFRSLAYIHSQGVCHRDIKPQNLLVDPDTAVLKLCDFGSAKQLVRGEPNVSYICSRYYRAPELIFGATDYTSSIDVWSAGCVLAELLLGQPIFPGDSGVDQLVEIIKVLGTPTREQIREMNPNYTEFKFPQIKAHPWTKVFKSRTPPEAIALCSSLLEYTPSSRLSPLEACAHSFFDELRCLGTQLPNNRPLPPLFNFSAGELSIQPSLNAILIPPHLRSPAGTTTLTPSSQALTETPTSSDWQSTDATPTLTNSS
Target sequence in this assay (Q96SW2 whole entry): as the sequence (Q96SW2 whole entry, looked up) above

[12] = target: T1, Protein cereblon/Glycogen synthase kinase-3 beta; assay: Protac activity at CRBN/GSK3beta in human SH-SY5Y cells assessed as induction of GSK3beta degradation measured after 24 hrs; type: cell-based
Target sequence in this assay (P49841 whole entry): as the sequence (P49841 whole entry, looked up) above
Target sequence in this assay (Q96SW2 whole entry): as the sequence (Q96SW2 whole entry, looked up) above

Structure (SMILES): Nc1ncc(-c2ccc(S(=O)(=O)N3CCN(Cc4cn(CCOCCOCCOCCNc5cccc6c5C(=O)N(C5CCC(=O)NC5=O)C6=O)nn4)CC3)cc2)nc1C(=O)Nc1cccnc1 (stereo not given)
Activity [1]: 80.2%
Activity [2]: 46.6%
Activity [3]: 75.6%
Activity [4]: 86.4%
Activity [5]: 45.4%
Activity [6]: 29.9%

Structure (SMILES): Nc1ncc(-c2ccc(S(=O)(=O)N3CCN(CCc4cn(CCOCCOCCOCCNc5cccc6c5C(=O)N(C5CCC(=O)NC5=O)C6=O)nn4)CC3)cc2)nc1C(=O)Nc1cccnc1 (stereo not given)
Activity [2]: 79.1%
Activity [3]: 90.7%
Activity [5]: 65%
Activity [6]: 51.6%

Structure (SMILES): Nc1ncc(-c2ccc(S(=O)(=O)N3CCN(CCc4cn(CCOCCOCCOCCOCCOCCOCCNc5cccc6c5C(=O)N(C5CCC(=O)NC5=O)C6=O)nn4)CC3)cc2)nc1C(=O)Nc1cccnc1 (stereo not given)
Activity [2]: 86%
Activity [3]: 93.9%
Activity [5]: 66.3%
Activity [6]: 55.9%

Structure (SMILES): Nc1ncc(-c2ccc(S(=O)(=O)N3CCN(CCc4cn(CCOCCOCCOCCOCCOCCNc5cccc6c5C(=O)N(C5CCC(=O)NC5=O)C6=O)nn4)CC3)cc2)nc1C(=O)Nc1cccnc1 (stereo not given)
Activity [2]: 81.3%
Activity [3]: 87.8%
Activity [5]: 68.1%
Activity [6]: 61.6%

Structure (SMILES): Nc1ncc(-c2ccc(S(=O)(=O)N3CCN(Cc4cn(CCOCCOCCOCCOCCOCCNc5cccc6c5C(=O)N(C5CCC(=O)NC5=O)C6=O)nn4)CC3)cc2)nc1C(=O)Nc1cccnc1 (stereo not given)
Activity [1]: 74.5%
Activity [2]: 63.8%
Activity [3]: 77.2%
Activity [4]: 65.9%
Activity [5]: 47.4%
Activity [6]: 28.9%

Structure (SMILES): Cn1sc(=O)n(Cc2ccccc2)c1=O
Activity (SH-SY5Y [7]): 1.1%
Activity (SH-SY5Y [8]): 5.3%
Activity (SH-SY5Y [9]): 92.4%
Activity (SH-SY5Y [10]): 1.3%

Structure (SMILES): Nc1ncc(-c2ccc(S(=O)(=O)N3CCN(CCCCc4cn(CCOCCOCCOCCOCCNc5cccc6c5C(=O)N(C5CCC(=O)NC5=O)C6=O)nn4)CC3)cc2)nc1C(=O)Nc1cccnc1 (stereo not given)
Activity [2]: 84.4%
Activity [3]: 90.3%
DC50 [11]: 38.2 nM
DC50 [12]: 110 nM
Activity [5]: 68.5%
Activity [6]: 63.7%

Structure (SMILES): Nc1ncc(-c2ccc(S(=O)(=O)N3CCN(CCCCc4cn(CCOCCOCCOCCOCCOCCOCCNc5cccc6c5C(=O)N(C5CCC(=O)NC5=O)C6=O)nn4)CC3)cc2)nc1C(=O)Nc1cccnc1 (stereo not given)
Activity [2]: 87%
Activity [3]: 91.4%
DC50 [11]: 40.4 nM
DC50 [12]: 66.6 nM
Activity [5]: 71.9%
Activity [6]: 56.7%

Structure (SMILES): Nc1ncc(-c2ccc(S(=O)(=O)N3CCN(Cc4cn(CCOCCOCCOCCNC(=O)CNc5cccc6c5CN(C5CCC(=O)NC5=O)C6=O)nn4)CC3)cc2)nc1C(=O)Nc1cccnc1 (stereo not given)
Activity [2]: < 5%
Activity [3]: < 5%

Structure (SMILES): Nc1ncc(-c2ccc(S(=O)(=O)N3CCN(CCc4cn(CCOCCOCCOCCOCCNc5cccc6c5C(=O)N(C5CCC(=O)NC5=O)C6=O)nn4)CC3)cc2)nc1C(=O)Nc1cccnc1 (stereo not given)
Activity [2]: 83.1%
Activity [3]: 91.8%
Activity [5]: 63.8%
Activity [6]: 55.9%

Structure (SMILES): Nc1ncc(-c2ccc(S(=O)(=O)N3CCN(Cc4cn(CCOCCOCCOCCOCCOCCOCCNc5cccc6c5C(=O)N(C5CCC(=O)NC5=O)C6=O)nn4)CC3)cc2)nc1C(=O)Nc1cccnc1 (stereo not given)
Activity [2]: 61.3%
Activity [3]: 75.4%
Activity [5]: 29.7%
Activity [6]: 15.2%

Structure (SMILES): Nc1ncc(-c2ccc(S(=O)(=O)N3CCN(CCCCc4cn(CCOCCOCCOCCNc5cccc6c5C(=O)N(C5CCC(=O)NC5=O)C6=O)nn4)CC3)cc2)nc1C(=O)Nc1cccnc1 (stereo not given)
Activity [2]: 89.7%
Activity [3]: 93.8%
Activity [5]: 69.3%
Activity [6]: 54.6%

Structure (SMILES): Nc1ncc(-c2ccc(S(=O)(=O)N3CCN(Cc4cn(CCOCCOCCOCCOCCNc5cccc6c5C(=O)N(C5CCC(=O)NC5=O)C6=O)nn4)CC3)cc2)nc1C(=O)Nc1cccnc1 (stereo not given)
Activity [2]: 65%
Activity [3]: 79.5%
Activity [5]: 42%
Activity [6]: 25.7%

Structure (SMILES): Nc1ncc(-c2ccc(S(=O)(=O)N3CCN(Cc4cn(CCOCCOCCNc5cccc6c5C(=O)N(C5CCC(=O)NC5=O)C6=O)nn4)CC3)cc2)nc1C(=O)Nc1cccnc1 (stereo not given)
Activity [2]: 39.6%
Activity [3]: 68.9%
Activity [5]: 46.9%
Activity [6]: 30.5%

Now from value to molecule:

Activity [1]: < 5%
Activity [2]: < 5%
Activity [3]: < 5%
Activity [4]: < 5%
Structure (SMILES): COc1ccc(-c2ocnc2C(=O)NCCCn2cc(CCCCC(=O)N[C@@H](C(=O)N3C[C@H](O)C[C@H]3C(=O)NCc3ccc(-c4scnc4C)cc3)C(C)(C)C)nn2)cc1Cl

Activity [1]: 85.2%
Activity [2]: 54.6%
Activity [3]: 56.2%
Activity [4]: 84.6%
Structure (SMILES): COc1ccc(-c2ocnc2C(=O)NCCCc2cn(CCOCCOCCOCCOCCOCCNc3cccc4c3C(=O)N(C3CCC(=O)NC3=O)C4=O)nn2)cc1Cl (stereo not given)

Activity [2]: 49.2%
Activity [3]: 69.5%
Structure (SMILES): COc1ccc(-c2ocnc2C(=O)NCCCc2cn(CCOCCOCCOCCOCCNc3cccc4c3C(=O)N(C3CCC(=O)NC3=O)C4=O)nn2)cc1Cl (stereo not given)

Activity [2]: 50.1%
Activity [3]: 25.2%
Structure (SMILES): COc1ccc(-c2ocnc2C(=O)NCCCc2cn(CCOCCOCCOCCOCCOCCOCCNc3cccc4c3C(=O)N(C3CCC(=O)NC3=O)C4=O)nn2)cc1I (stereo not given)

Activity [2]: 79.5%
Activity [3]: 95.2%
Activity [5]: 61.1%
Activity [6]: 41.9%
Structure (SMILES): Nc1ncc(-c2ccc(S(=O)(=O)N3CCN(CCc4cn(CCOCCOCCNc5cccc6c5C(=O)N(C5CCC(=O)NC5=O)C6=O)nn4)CC3)cc2)nc1C(=O)Nc1cccnc1 (stereo not given)

Activity [1]: < 5%
Activity [2]: < 5%
Activity [3]: < 5%
Activity [4]: < 5%
Structure (SMILES): COc1ccc(-c2ocnc2C(=O)NCCCn2cc(COCCOCCOCCOCC(=O)N[C@@H](C(=O)N3C[C@H](O)C[C@H]3C(=O)NCc3ccc(-c4scnc4C)cc3)C(C)(C)C)nn2)cc1Cl

Activity [1]: 35.8%
Activity [2]: < 5%
Activity [3]: < 5%
Activity [4]: < 5%
Structure (SMILES): COc1ccc(-c2ocnc2C(=O)NCCCc2cn(CCOCCOCCOCCNC(=O)CNc3cccc4c3CN(C3CCC(=O)NC3=O)C4=O)nn2)cc1Cl (stereo not given)

Activity [2]: 88.3%
Activity [3]: 95.1%
Activity [5]: 70.9%
Activity [6]: 38.2%
Structure (SMILES): Nc1ncc(-c2ccc(S(=O)(=O)N3CCN(CCCCc4cn(CCOCCOCCNc5cccc6c5C(=O)N(C5CCC(=O)NC5=O)C6=O)nn4)CC3)cc2)nc1C(=O)Nc1cccnc1 (stereo not given)

Activity [2]: 25.5%
Activity [3]: 46.1%
Structure (SMILES): COc1ccc(-c2ocnc2C(=O)NCCCc2cn(CCOCCOCCNc3cccc4c3C(=O)N(C3CCC(=O)NC3=O)C4=O)nn2)cc1I (stereo not given)

Activity [2]: 25.9%
Activity [3]: 46.5%
Structure (SMILES): COc1ccc(-c2ocnc2C(=O)NCCCc2cn(CCOCCOCCOCCOCCNc3cccc4c3C(=O)N(C3CCC(=O)NC3=O)C4=O)nn2)cc1I (stereo not given)

Activity [1]: 37.3%
Activity [2]: 14.5%
Activity [3]: 38.7%
Activity [4]: 76.4%
Structure (SMILES): COc1ccc(-c2ocnc2C(=O)NCCCn2cc(COCCOCCOCCOc3cccc4c3CN(C3CCC(=O)NC3=O)C4=O)nn2)cc1Cl (stereo not given)

Activity [1]: 73.3%
Activity [2]: 36.8%
Activity [3]: 62.4%
Activity [4]: 89.9%
Structure (SMILES): COc1ccc(-c2ocnc2C(=O)NCCCc2cn(CCOCCOCCOCCNc3cccc4c3C(=O)N(C3CCC(=O)NC3=O)C4=O)nn2)cc1Cl (stereo not given)

Activity [2]: 88.8%
Activity [3]: 60.7%
Structure (SMILES): COc1ccc(-c2ocnc2C(=O)NCCCc2cn(CCOCCOCCOCCOCCOCCOCCNc3cccc4c3C(=O)N(C3CCC(=O)NC3=O)C4=O)nn2)cc1Cl (stereo not given)

Activity [2]: 28.2%
Activity [3]: 43.8%
Structure (SMILES): COc1ccc(-c2ocnc2C(=O)NCCCc2cn(CCOCCOCCNc3cccc4c3C(=O)N(C3CCC(=O)NC3=O)C4=O)nn2)cc1Cl (stereo not given)

Activity [2]: 56.5%
Activity [3]: 55.6%
Structure (SMILES): COc1ccc(-c2ocnc2C(=O)NCCCc2cn(CCOCCOCCOCCOCCOCCNc3cccc4c3C(=O)N(C3CCC(=O)NC3=O)C4=O)nn2)cc1I (stereo not given)

Activity [2]: 22.8%
Activity [3]: 60.9%
Structure (SMILES): COc1ccc(-c2ocnc2C(=O)NCCCc2cn(CCOCCOCCOCCNc3cccc4c3C(=O)N(C3CCC(=O)NC3=O)C4=O)nn2)cc1I (stereo not given)
